Type in all cases: cell-based, human
Data set [1] concerns acetylation of histones H3 and H4 at TRR. The data set can be described thus: ChIP analysis of histone H3 and H4 acetylation at TRR. The note with it: PLC/PRF/5 cells; regardless of AzadC pretreatment; P<0.05. The procedure:
(§1) ChIP analysis was performed using a specific assay kit (Millipore, USA) according to manufacturer's specifications. SK-Hep1 and PLC/PRF/5 cells were pre-treated or not treated with AzadC for 72 hours, to which TGFβ1 was additionally treated or not treated. The cells were treated with formaldehyde, leading to the binding of DNA to the protein (DNA conjugated protein), followed by cell lysis. After DNA fractionation, the antibody to RNAPII protein shown in Table 7 was added thereto, followed by reaction at 4° C. for overnight. The antibody was isolated by adding 50 μl of Protein A/G PLUS-Agarose. At this time, the DNA specifically bound to the antibody was purified. The purified DNA proceeded to PCR using the primer sets of Table 8.
Chromatin is basically composed of histones and DNA. The histone status, that is, the methylation or acetylation status of histones is involved in the regulation of gene expression. Transcriptional activity is additionally dependent on the acetylation level of histones H3 and H4 in the promoter region. Moreover, TGFβ1-mediated transcription activation requires H3 acetylation (Ross S et al., EMBO J 25:4490-4502, 2006). Therefore, information about the transcriptional activity of the promoter region can be obtained by using the antibody against acetylated histone. […]

The test system of data set [2] is c-Myc mRNA. In words: c-Myc mRNA level after TGFβ1 (RT-PCR). The procedure: (§2) Total RNA was extracted from the HCC cell lines by using RNeasy mini kit (QIAGEN, USA). Distilled water was added to 1 μg of the total RNA and 1 μl of oligo-d(T) (Invitrogen, USA, 0.5 μg/μl) to make the total volume of the mixture 50 μl, followed by RT-PCR in AccuPower RT-premix (Bioneer, Korea). Before RT-PCR, cDNA was synthesized as follows: at 70° C. for 5 minutes, at 4° C. for 5 minutes, at 42° C. for 60 minutes, at 94° C. for 5 minutes, and at 4° C. for 5 minutes to produce cDNA. PCR was performed by using the obtained cDNA (3˜5 μl) or distilled water (negative control) as a template with the primer set as shown in Table 1 and PCR Master Mix (Promega, USA). PCR conditions were as follows: pre-denaturation at 95° C. for 5 minutes, denaturation at 95° C. for 45 seconds, annealing at 65° C. for […], polymerization at 72° C. for 45 seconds, 35 cycles from denaturation to polymerization, final extension at 72° C. for 5 minutes, and cooling at 4° C. The amplified product was quantified via standardization with β-actin.
SK-Hep1 and PLC/PRF/5 cells which had been pre-treated or not treated with AzadC for 72 hours were treated additionally with TGFβ1 for 0, 0.5, 1.0, 1.5, 2.0, and 2.5 hours. Then RT-PCR was performed with the cells by using the primer sets of Table 10 in the same manner as described in Example <1-2>.

Data set [3] relates to TTP promoter. In words: TTP promoter luciferase reporter assay. The note with it: SK-Hep1 cells; no AzadC. As for the experimental part:
To confirm that TTP expression is directly controlled by methylation of the #2 CpG site, the present inventors examined the transcriptional activity of the TTP promoter region in relation to the methylation status of the #2 CpG site using luciferase reporter assays.
Luciferase assays were performed using the Promega Luciferase Assay System (Promega, USA), according to the manufacturer's protocol. Luciferase reporter constructs were generated by amplifying TTP promoter regions from normal human genomic DNA (BioChain, USA) using the primer sets shown in Table 5 according to the method of Example <1-2>.
As a result, wild-type promoter (WT), a single base-substituted promoter (C→T), and TRR-deleted promoter (Del) were constructed. These promoters were cloned into the KpnI/BglII sites of pGL3-basic vector (Promega, USA). Ligated products were amplified in E. coli. After purification, the ligated products were transfected into SK-Hep1 cells by using LipofectAMINE Plus reagent (Invitrogen). Specifically, the luciferase reporter constructs (0.25 μg) were co-transfected with a control plasmid (0.05 μg) encoding renilla into 1×10^5 cells/well in 12-well plates. At that time, AzadC was treated 12 hours before the transfection. After treating with TGFβ1, luciferase activities were measured using a luminometer (Berthold Lumat LB9501, Bad Wildbad, Germany). […]
Background: Reporter assays use an easily measured gene product as a stand-in for the process of interest.

For data set [4], the system named is TTP expression in PLC/PRF/5 and SK-Hep1 cells. The data set can be described thus: TGFβ1-mediated TTP induction with or without AzadC (RT-PCR). The procedure: as §2
TGFβ1 (R&D systems, USA) was treated thereto at the concentration of 5 μg/l for 0, 0.5, 1, 1.5, 3, 6, and 12 hours.

Data set [5] concerns PLC/PRF/5 cells. In words: Cell cycle by FACS after TTP knock-down. As for the experimental part: (§3) Lentiviral-based short hairpin RNAs (shRNAs) against TTP (Sigma-Aldrich; […] CTTTTT: SEQ. ID. NO. 40) or control shRNA targeting eGFP (Sigma-Aldrich) were transfected into PLC/PRF/5 cells and selected with 1 mg/l puromycin (Invitrogen). The selected PLC/PRF/5 transfectants were additionally treated with TGFβ1 for 0, 0.5, 1.0, 1.5, 2.0, and 2.5 hours. To investigate the half-life of c-Myc mRNA, actinomycin D was treated for 0, 15, 30, […], 60, and 75 minutes, and RT-PCR was performed with the cells.
FACS was performed with the cells treated in Example <7-4>.
In general terms: Flow cytometry measures light scatter and fluorescence of single cells or particles in a stream.

Data set [6] concerns phospho-SMAD2/3 binding to TRR. In words: ChIP analysis of phosphorylated SMAD2/3 binding to TRR. The note with it: both SK-Hep1 and PLC/PRF/5 cell lines. The procedure:
as §1
The present inventors performed ChIP analysis using the antibodies shown in Table 9 in the same manner as described in Example <6-1> in order to investigate the bindings of phosphorylated SMAD2/3, transcription inhibitor, methyl DNA binding protein, and DNMT (DNA methyltransferase), which are important factors involved in TGFβ1 signal transduction, in TRR (a). At this time, input was a part of cell extract obtained after fixing the cells in formaldehyde and DNA fractionation, which is the status right before immunoprecipitation with antibody.

Data set [7] relates to SK-Hep1 and PLC/PRF/5 cells. In words: Cell growth by MTT assay and crystal violet staining. The note with it: TGFβ1 96 hours. The procedure:
MTT assay and crystal violet staining were performed with the cells. MTT (methylthiazoletetrazolium; Sigma-Aldrich) assay was performed by the informed technique (Mosmann T, J Immunol Methods 65:55-63, 1983) using μQuant Universal Microplate Spectrophotometer (Biotek Instruments, USA) at 570 nm. For crystal violet staining, the cells were fixed in 10% formaldehyde and stained in 10% crystal violet solution for 10 min at room temperature.
Background: Formazan colour is commonly taken as a measure of viable cells.

Data set [8] concerns RNAPII binding to the TTP locus. In words: ChIP analysis of RNAPII binding to the TTP locus. The note with it: PLC/PRF/5 cells; regardless of AzadC treatment.
Excerpt: To establish the molecular mechanism of epigenetic regulation of TTP, the present inventors estimated the levels of different forms of phosphorylated RNAPII (RNA polymerase II) proteins bound to the TTP locus by ChIP (chromatin immunoprecipitation) analysis, i.e., unphosphorylated form (unP) as a measure of transcriptional initiation, and those phosphorylated at serine 5 (pS5) and serine 2 (pS2) of the carboxy-terminal repeat domain as a measure of promoter escape/capping and transcriptional elongation, respectively.
as §1

For data set [9], the system named is PLC/PRF/5 cells. The data set can be described thus: Cell growth after TTP knock-down (MTT, crystal violet staining). As for the experimental part: SK-Hep1 and PLC/PRF/5 cells were pre-treated or not treated with AzadC for 72 hours, to which TGFβ1 was additionally treated or not treated for 96 hours. MTT assay and crystal violet staining were performed with the cells. MTT (methylthiazoletetrazolium; Sigma-Aldrich) assay was performed by the informed technique (Mosmann T, J Immunol Methods 65:55-63, 1983) using μQuant Universal Microplate Spectrophotometer (Biotek Instruments, USA) at 570 nm. For crystal violet staining, the cells were fixed in 10% formaldehyde and stained in 10% crystal violet solution for 10 min at room temperature.
as §3
Western blotting was performed with the cells treated in Example <7-4> in the same manner as described in Example <7-2-1> to investigate the levels of c-Mycand p21^Cip1. MTT and crystal violet staining were also performed in the same manner as described in Example <7-2-2>.

In data set [10] the test system is c-Myc mRNA in PLC/PRF/5 cells. In words: c-Myc mRNA degradation and half-life after TTP knock-down (RT-PCR, actinomycin D). The procedure:
as §3

Where [11] appears, read: PLC/PRF/5 cells (#2 CpG not methylated), TGFβ1 5 μg/l.
Where [12] appears, read: PLC/PRF/5 cells, both before and after TGFβ1 treatment.

Where only a bound is given, the exact number is not on record here.

As for “TGFβ1: Transforming growth factor beta 1, a multifunctional cytokine (R&D systems)”, the “acetylation of histones H3 and H4 at TRR (region a)” value in data set [1] is reported as “significantly increased”. In [2] (PLC/PRF/5 cells, TGFβ1 0-2.5 hours), the c-Myc level entry is on record as “rapidly decreased from 1 hour after TGFβ1 treatment”. Also, the c-Myc level decrease entry in data set [2] (SK-Hep1 cells, TGFβ1 without AzadC) is “not in SK-Hep1 cells”. In addition, the “responsiveness of wild-type TTP promoter (WT) to TGFβ1, luciferase” value in data set [3] was “not responsive”. For the same substance, in [4] (setting [11]), the “time of peak TTP expression after TGFβ1 treatment” value stood at 1 h and the “time to increase of TTP expression after TGFβ1 treatment” value is on record as at most 30 min. Moreover, the “induction of TTP expression” value in [4] (SK-Hep1 cells (high #2 CpG methylation), TGFβ1 alone 5 μg/l) is given as “not induced”. In addition, in [5] (PLC/PRF/5 control cells (control shRNA)), the “size of the G2/M population following TGFβ1 treatment” value was “decreased significantly”. The “binding of phospho-SMAD2/3 to TRR” value in data set [6] is “TGFβ1-dependent binding of phospho-SMAD2/3 to TRR was observed”. For the same substance, the cell growth entry in data set [7] is reported as “phenotypic growth inhibition”. For the same substance, the “binding of RNAPII proteins to the TTP locus” value in data set [8] is given as “significantly increased the binding of RNAPII proteins”.
In the case of “TTP knock-down: Lentiviral-based short hairpin RNA against TTP (Sigma-Aldrich), SEQ. ID. NO. 40, transfected into PLC/PRF/5 cells (CCGGGCTTCGCCAGAGCATCAGCTTCTCGAGAAGCTGATGCTCTGGCGAAGCTTTTT; expressed or natural sequence)”, in [9], the “growth inhibitory effect of TGFβ” value is listed as “blocking the growth inhibitory effect of TGFβ” and the growth rate result is “elevated the growth rate”. Also, the “size of the G2/M population following TGFβ1 treatment” value in data set [5] (PLC/PRF/5 TTP knock-down cells) is on record as “remained unchanged”. In [5] (setting [12]), the “relative size of the G1 and sub G1 populations” value is given as “decreased”; the “relative size of the S phase population” value was “increased”. In addition, the “half-life of c-Myc mRNA” value in data set [10] (in the presence of actinomycin D, control 24 min) worked out at 51 min. For the same substance, in data set [10] (shRNA-mediated knock-down of TTP), the “c-Myc mRNA degradation after TGFβ1 treatment” value is “significantly retarded c-Myc mRNA degradation”.

The values above are taken from US8703419B2, “Method for diagnosis/prognosis of cancers using an epigenetic marker consisting of a specific single CpG site in TTP promoter and treatment of cancers by regulating its epigenetic status” (Korea Research Institute of Bioscience and Biotechnology, priority 2009, dated 2014).
